Results on one compound are retold here after patent publication US8097224B2, “Apparatuses and media for drug elution and methods for making and using them” (Medtronic MiniMed, Inc., priority 2007, dated 2012).

Molecules are shown by their SMILES.

The conditions of this series: 0.022 mg/mL.

Protocol: To evaluate buffers with different pH, eleven milligrams of Dexamethasone Acetate was dissolved in 500 mL of media (different pH adjusted buffers).

Regarding `CC(=O)OCC(=O)[C@@]1(O)[C@H](C)C[C@H]2[C@@H]3CCC4=CC(=O)C=C[C@]4(C)[C@@]3(F)[C@@H](O)C[C@@]21C` [Dexamethasone Acetate], the “stability with respect to pH (order)” value is recorded as “pH 3>pH 5≅acetate pH 5.7>water>pH 7>pH 9”.
